One data set deals with L1210 leukemia cells. Put plainly: cell proliferation test, incorporation of C14-thymidine into DNA of L1210 leukemia cells. The class given is cell-based. Conditions: Mus musculus. On the procedure: The cytorhodins according to the invention are distinguished by a powerful cytostatic activity and gave the following action on L1210 leukemia cells in the cell proliferation test:
The inhibiting action is determined as follows (cell proliferation test):
L1210 cells in the exponential growth phase (5×10^3 /ml in RPMI 1640) are incubated with various concentrations of the test substance in a microtiter plate for 72 hours (37° C., 5% of CO2, 95% relative atmospheric humidity). Controls comprise cells which are incubated only with fresh medium. All the determinations are carried out as quadruplicate determinations. After 65 hours, 50 μl of C14-thymidine (1.5 μC/ml) are added in order to radioactively label the DNA of the cells. After incubation for 7 hours, the cells are filtered off with suction and the DNA is precipitated with 5% strength trichloroacetic acid and washed successively with water and methanol. After drying at 50° C., the radioactivity incorporated into the DNA is determined, after addition of 5 ml of scintillation liquid. The results are given as the relationships of the scintillation index after incubation with test substance in percent of the untreated control. […]

Data set [1] is described as follows: solubility (description of the substance).

SMILES strings stand for the structures. Converted amounts (≈) assume the structure as drawn. Where two headings read alike, the source gives them in different places.

Turning to `CCC1(O)CC(OC2CC(N(C)C)C(OC3CC4OC5CC(=O)C(C)OC5OC4C(C)O3)C(C)O2)c2c(O)c3c(c(O)c2C1OC1CC(N(C)C)C(O)C(C)O1)C(=O)c1cccc(O)c1C3=O` (stereo not drawn) [Cytorhodin S], the IC50 in the data set on L1210 leukemia cells (L1210 leukemia cells, 72 hours, 37° C., incorporation of radioactive thymidine reduced by 50% compared with the control, read-out: IC50) is 0.3 ng/mL (≈ 0.319 nM). Besides, in data set [1], the “solubility in methanol, ethyl acetate, chloroform and toluene” value is on record as “readily soluble”; the “solubility in water and hexane” value is “insoluble”.

Compound `CCC1(O)CC(OC2CC(N(C)C)C(O)C(C)O2)c2c(O)c3c(c(O)c2C1OC1CC(N(C)C)C(OC2CC4OC5CC(=O)C(C)OC5OC4C(C)O2)C(C)O1)C(=O)c1cccc(O)c1C3=O` (stereo not drawn) [Cytorhodin T] came in with an IC50 in the data set with L1210 leukemia cells (L1210, 72 h) of 2 ng/mL (≈ 2.13 nM). Besides, in data set [1], the “solubility in methanol, ethyl acetate, chloroform and toluene” value is listed as “readily soluble”; the “solubility in water and hexane” value was “insoluble”.

As usually defined, the IC50 is the concentration that inhibits the measured activity by half.

The record behind these values is patent US4737583A, “Anthracyclin derivatives” (priority 1983, dated 1988).
